Counter-ions that a name gives are not always drawn. One block for each compound: values may come before it.
Legend:
[1] = on lowering the pH of formulations, even with PVPs or PEGs; cited from earlier work
[2] = test system: patient having a reduced anal resting pressure; conditions: phenylephrine concentrations below 10%, topical; cited from earlier work
[3] = test system: Healthy volunteers; experiment: Resting anal pressure by anorectal manometry after intraanal administration (Example 1); format: in vivo, human
Description: Preparations of phenylephrine hydrochloride and oxymetazoline were prepared. The oxymetazoline was first dissolved in propylene glycol and then added to polyethylene glycol 1500 to obtain a solution in the concentration of 1 mg/1 mL.
The preparations were administered intraanally. The doses are expressed as both a volume of a concentration of the drug solution and also as milligrams of the active ingredient.
Resting anal pressure was determined by anorectal manometry for measuring contractility in the anus and rectum using the ManoScan 360™ catheter (Sierra Scientific Instruments).
Healthy volunteers, men and women of 18 to 55 years old received intraanal dose of 40 mg (40 mL) or 80 mg (80 mL) phenylephrine or a dose of 1 mg oxymetazoline (1 mL; 0.1%). None of the volunteers had symptoms of anal incontinence nor previous anal surgery and presumed to have intact internal and external anal sphincters. Pre-treatment mean resting pressure was 85 mmHg for the phenyephrine 40 mg group, and 81 mmHg for the phenylephrine 80 mg group.
After the application of the aforementioned doses of phenylephrine and oxymetazoline, resting anal pressure was determined at the following time intervals: […], […] The results are summarized in Tables 1 and 2 below and in FIG. 1.

[4] = test system: healthy human subjects; experiment: Cardiac effect of oxymetazoline: blood pressure and heart rate (Example 2); format: in vivo
Source text: The effect of oxymetazoline on cardiac parameters was examined in four healthy human subjects.

[5] = test system: healthy human subjects; experiment: Change in resting anal pressure at different oxymetazoline doses (Example 2); format: in vivo
[6] = Solubility of oxymetazoline; format: physicochemical; conditions: aqueous and non aqueous media
[7] = Phenylephrine 40 mg intraanal, time 90 min
[8] = Phenylephrine 40 mg intraanal, time 180 min
[9] = Phenylephrine 40 mg intraanal, time 240 min
[10] = Phenylephrine 80 mg intraanal, time 90 min
[11] = Phenylephrine 80 mg intraanal, time 180 min
[12] = Phenylephrine 80 mg intraanal, time 240 min
[13] = oxymetazoline 1 mg (1 mL; 0.1%) intraanal, time 0 min
[14] = oxymetazoline 1 mg (1 mL; 0.1%) intraanal, time 60 min
[15] = oxymetazoline 1 mg (1 mL; 0.1%) intraanal, time 180 min
[16] = oxymetazoline 1 mg (1 mL; 0.1%) intraanal, time 300 min

Structure (SMILES): Cc1cc(C(C)(C)C)c(O)c(C)c1CC1=NCCN1 [oxymetazoline HCl, 6-tert-butyl-3-(2-imidazolin-2-ylmethyl)-2,4-dimentylphenol hydrochloride]
Photodegradation level [1]: significantly reduced

Structure (SMILES): CNC[C@H](O)c1cccc(O)c1 [Phenylephrine]
Increase in the maximum resting pressure [2]: no significant increase | Maximum increase in anal pressure ([3]; 40 mg phenylephrine intraanal): 10 mmHg | Time to reach the initial (pre-treatment) resting anal pressure ([3]; 40 mg phenylephrine intraanal): less than 5 hours | Maximum increase in anal pressure ([3]; 80 mg phenylephrine intraanal): 22.5 mmHg | Time in which increased pressure dropped nearly to the pressure prior to treatment ([3]; 80 mg phenylephrine intraanal): ≤ 3 h | Time in which resting anal pressure dropped down to the pressure observed prior to treatment ([3]; 80 mg phenylephrine intraanal): less than 5 hours | Change Relative to T = 0 (resting anal pressure) ([3]; Phenylephrine 40 mg intraanal, time 0 min): 0 mmHg | Resting anal pressure ([3]; Phenylephrine 40 mg intraanal, time 0 min (pre-treatment)): 85 mmHg | Change Relative to T = 0 (resting anal pressure) [3, 7]: 10 mmHg | Resting anal pressure [3, 7]: 95 mmHg | Change Relative to T = 0 (resting anal pressure) [3, 8]: 7.5 mmHg | Resting anal pressure [3, 8]: 92.5 mmHg | Change Relative to T = 0 (resting anal pressure) [3, 9]: 0 (±1.75) mmHg | Resting anal pressure [3, 9]: 83.25 mmHg | Change Relative to T = 0 (resting anal pressure) ([3]; Phenylephrine 80 mg intraanal, time 0 min): 0 mmHg | Resting anal pressure ([3]; Phenylephrine 80 mg intraanal, time 0 min (pre-treatment)): 81 mmHg | Change Relative to T = 0 (resting anal pressure) [3, 10]: 22.5 mmHg | Resting anal pressure [3, 10]: 103.5 mmHg | Change Relative to T = 0 (resting anal pressure) [3, 11]: 6.75 mmHg | Resting anal pressure [3, 11]: 87.75 mmHg | Change Relative to T = 0 (resting anal pressure) [3, 12]: 0 (±1.75) mmHg | Resting anal pressure [3, 12]: 80.25 mmHg

Solubility [6]: soluble in aqueous and non aqueous media
Structure (SMILES): Cc1cc(C(C)(C)C)c(O)c(C)c1CC1=NCCN1 [Oxymetazoline, 3-(4,5-dihydro-1H-imidazol-2-ylmethyl)-2,4-dimethyl-6-tert-butyl-phenol]
Change Relative to T = 0 (resting anal pressure) [3, 13]: 0 mmHg | Resting anal pressure [3, 13]: 75 mmHg | Change Relative to T = 0 (resting anal pressure) [3, 14]: 18 mmHg | Resting anal pressure [3, 14]: 93 mmHg | Change Relative to T = 0 (resting anal pressure) [3, 15]: 28 mmHg | Resting anal pressure [3, 15]: 103 mmHg | Change Relative to T = 0 (resting anal pressure) [3, 16]: 27 mmHg | Resting anal pressure [3, 16]: 102 mmHg | Increase in the maximum resting pressure relative to the pressure before treatment ([3]; oxymetazoline 1 mg intraanal): about 30 mmHg | Time for which the increased resting anal pressure was maintained ([3]; oxymetazoline 1 mg intraanal, duration of the recording): at least 5 hours | Change in diastolic blood pressure ([4]; Oxymetazoline dose 0.01%): 2 mmHg | Change in heart rate ([4]; Oxymetazoline dose 0.01%): −3 beats/min | Change in systolic Blood pressure ([4]; Oxymetazoline dose 0.01%): 6 mmHg | Change in diastolic blood pressure ([4]; Oxymetazoline dose 0.1%): 0 mmHg | Change in heart rate ([4]; Oxymetazoline dose 0.1%): 0 beats/min | Change in systolic Blood pressure ([4]; Oxymetazoline dose 0.1%): 5 mmHg | Change in diastolic blood pressure ([4]; Oxymetazoline dose 0.5%): 1 mmHg | Change in heart rate ([4]; Oxymetazoline dose 0.5%): 1 beats/min | Change in systolic Blood pressure ([4]; Oxymetazoline dose 0.5%): 3 mmHg | Changes in the diastolic blood pressure, systolic blood pressure or in the heart rate ([4]; low doses of about 0.1%): did not induce any changes | Cardiovascular side effect ([4]; low doses of oxymetazoline (0.01%-0.5%)): do not induce any cardiovascular side effect | Change in resting anal pressure ([5]; Oxymetazoline dose 0.01%): 11 mmHg | Change in resting anal pressure ([5]; Oxymetazoline dose 0.1%): 18.5 mmHg | Significance of change in resting anal pressure with respect to baseline ([5]; Oxymetazoline dose 0.1%): statistically significant | Change in resting anal pressure ([5]; Oxymetazoline dose 0.5%): 24.75 mmHg | Significance of change in resting anal pressure with respect to baseline ([5]; Oxymetazoline dose 0.5%): statistically significant

From US9849114B2, “Oxymetazoline for the treatment of ano-rectal disorders” (RDD Pharma Ltd., priority 2011, dated 2017)
